Experimental data from ChEMBL document CHEMBL1156829 (Proc Natl Acad Sci U S A, 2008).

Experiments:
Plasmodium falciparum [1] = experiment: NOVARTIS: Inhibition of Plasmodium falciparum W2 (drug-resistant) proliferation in erythrocyte-based infection assay; format: functional, organism-based; conditions: Plasmodium falciparum, W2; read-out: EC50
[2] = NOVARTIS: Cytotoxicity against human hepatocellular carcinoma cell line (Huh7); format: toxicity, cell-based, Huh-7; conditions: Huh7 cells (hepatocellular carcinoma cell line)
Plasmodium falciparum [3] = experiment: NOVARTIS: Inhibition of Plasmodium falciparum 3D7 (drug-susceptible) proliferation in erythrocyte-based infection assay; format: functional, organism-based; conditions: Plasmodium falciparum, 3D7

SMILES	EC50 (Plasmodium falciparum [1]) [nM]	CC50 [2] [nM]	EC50 (Plasmodium falciparum [3]) [nM]
CC1CNC2C(C)C3C(CC4C5CCC6CC(N)CCC6(C)C5CCC43C)OC2(O)C1 (stereo not drawn)	< 12.7	> 10000	863
CCc1cccc2c(C#N)cn(CC(=O)Nc3ccc(OC)cc3)c12	126	> 100000	225
CCOc1cc2c(cc1OCC)C(c1cc(OC)c(O)cc1Cl)NCC2 (stereo not drawn)	95.8	74200	362
CCOc1ccc(-n2c(=S)sc3c(=O)n(-c4ccc(C)cc4)c(SCC(=O)Nc4cc(OC)ccc4OC)nc32)cc1	123	> 100000	285
CC=Cc1n(C)c2ccccc2[n+]1C	129	> 100000	613
CCN(CC)CCCC(C)N=c1cc(C=Cc2ccc([N+](=O)[O-])cc2)[nH]c2ccc(OC)cc12 (stereo not drawn)	14	11700	20.9
Oc1c(C(Nc2ccccn2)c2cccc(Cl)c2Cl)ccc2cccnc12 (stereo not drawn)	132	> 100000	174
N=c1c2c(n(Cc3ccc([N+](=O)[O-])cc3)c3c1CCC3)CCCC2	130	> 100000	121
FC(F)(F)c1cccc(NC(=S)N2CCCC2c2ccccc2C(F)(F)F)c1 (stereo not drawn)	< 13	> 10000	214
Cc1ccc(CSCc2ccc(C(=O)NC3CC3)o2)cc1	133	> 100000	418
CC(NCc1ccccc1)c1cc(Cl)ccc1O (stereo not drawn)	97.2	73300	592
CCCCC(CC)C(=O)NCCCCNc1ccnc2cc(Cl)ccc12 (stereo not drawn)	< 13.4	> 10100	297
CC(=O)NC1=NN(C(C)=O)C(C)(c2ccc([N+](=O)[O-])cc2)S1 (stereo not drawn)	132	> 100000	497
CCOc1ccc(C2c3[nH]c4ccccc4c3CCN2C(=O)c2cc3cc(Br)ccc3o2)cc1 (stereo not drawn)	135	> 100000	316
CCOC(=O)C1=C(C)NC2=C(C(=O)C(C(=O)OCC)C(c3ccc(OC)cc3)C2)C1c1ccc([N+](=O)[O-])cc1 (stereo not drawn)	134	> 100000	685
C[n+]1oc(C=Cc2ccccc2)cc1C=Cc1ccccc1	28.8	21200	68.8
CN(CCCNc1ccnc2cc(Cl)ccc12)C(=O)COCc1ccccc1	< 13.5	> 10000	110
COc1ccc(OC)c(C2CC(=O)C3=C(C2)NC(=O)CC3c2ccc(OC)c(OC)c2)c1 (stereo not drawn)	118	> 100000	616
COc1cc(OC)c(N(C)C(=O)c2cn(C3CCCC3)c(=O)c3c2c2ccccc2n3C)cc1Cl	55.3	47200	97.7
CCOC(=O)C1=C(C)NC2=C(C(=O)CC(c3ccc(Cl)cc3)C2)C1c1ccc(Br)cc1 (stereo not drawn)	116	> 100000	378
CC(C)(C)NC(=O)c1cn(C2CCCCC2)cc(C(=O)NC2CCN(Cc3ccccc3)C2)c1=O (stereo not drawn)	< 12.8	> 10000	188
O=C(Nc1ccc(C(=O)Nc2cccc(C3=NCCN3)c2)cc1)c1ccc(C2=NCCN2)cc1	128	> 100000	193

SMILES	EC50 (Plasmodium falciparum [1]) [nM]	CC50 [2] [nM]	EC50 (Plasmodium falciparum [3]) [nM]
CC(C)(C)c1nn(-c2ccc(Cl)cc2)c2[nH]c(=O)c(CNCc3ccc(Cl)cc3)cc12	129	> 100000	351
Nc1nonc1-n1nnc(-c2ccccc2)c1C(=O)NN=Cc1ccc(F)c(Br)c1	119	> 100000	342
CCNc1nc(NC(C)CC)nc(ON=C(C)C)n1 (stereo not drawn)	118	> 100000	441
CCN1CCCC(Nc2ccnc3cc4ccccc4cc23)C1 (stereo not drawn)	4.81	3750	8.24
COc1ccc2c(c1)-c1c(ssc1=S)C(C)(C)N2C(=O)c1ccccc1F	118	> 100000	652
CCOC(=O)c1cnc2c(OC)cccc2c1Nc1ccc(C(C)=O)cc1	123	> 100000	592
Nc1cc(C(=O)Nc2ccc(C3=NCCCN3)cc2)ccc1C(=O)Nc1ccc(C2=NCCCN2)cc1	123	> 100000	190
COc1ccc(C2CC(=O)C3=C(C2)NC(=O)CC3c2ccc(C(F)(F)F)cc2)cc1OC (stereo not drawn)	123	> 100000	182
O=C(NC(=CC=Cc1ccccc1)C(=O)N1CCOCC1)c1ccccc1	122	> 100000	3860
Cc1noc(C)c1S(=O)(=O)N(Cc1ccccc1)CC(O)CN1CCC(NC(=O)c2ccc(F)cc2)C1 (stereo not drawn)	< 12.1	> 10000	447
CCOc1cc(C2CC(=O)NC3=C2C(=O)CC(c2cc(OC)ccc2OC)C3)ccc1O (stereo not drawn)	123	> 100000	431
c1ccc2cc3c(Nc4ccc(N5CCOCC5)cc4)ccnc3cc2c1	83.9	69500	672
CN1CCN=C1c1ccc(NC(=O)c2ccc(C(=O)Nc3ccc(C4=NCCN4C)cc3)cc2)cc1	12	> 10000	91.1
COC(=O)c1ccc(N(C(=O)Cc2c[nH]c3ccccc23)C(C(=O)NC2CCCCC2)c2cccnc2)cc1 (stereo not drawn)	132	> 100000	232
CC(C)CN1C(=O)c2ccccc2C(C(=O)Nc2ccc(F)c(Cl)c2)C1c1cccs1 (stereo not drawn)	120	> 95200	121
CC(=O)c1cccc(NC(=O)NC2CC3CCCC(C2)N3CCc2ccccc2)c1 (stereo not drawn)	12.6	> 10000	17.3
COc1ccc(C2CC(=O)C3=C(C2)NC(C)=C(C(=O)OC2CCCC2)C3c2ccc(Cl)cc2)cc1 (stereo not drawn)	125	> 100000	260
Cc1cc(F)ccc1NC(=O)C(C)n1c2ccccc2c2nc(=O)cc(C)n21 (stereo not drawn)	126	> 100000	283
CC12CCC(C(=O)N(CC(O)Cn3c4ccc(Cl)cc4c4cc(Cl)ccc43)C1=O)C2(C)C (stereo not drawn)	120	> 100000	118
Nc1nonc1-n1nnc(C(=O)NN=Cc2ccc(F)c(Br)c2)c1-c1ccc([N+](=O)[O-])cc1	128	> 100000	292
O=C(Nc1cc(Cl)cc(Cl)c1)Nc1ccccc1C(=O)NCC1CC1	< 12.4	> 10000	> 1180
Cc1ccc2c(c1)C(C)(c1ccc(Cl)cc1)CC(C)(C)N2C(=O)COc1ccc2ccccc2c1 (stereo not drawn)	124	> 100000	> 12500

SMILES	EC50 (Plasmodium falciparum [1]) [nM]	CC50 [2] [nM]	EC50 (Plasmodium falciparum [3]) [nM]
COc1cc(NC(C)CCCN(Cc2ccc(N(C)C)cc2)S(=O)(=O)c2c(C)cc(C)cc2C)c2ncccc2c1 (stereo not drawn)	< 13.4	> 10600	533
CCOC(=O)C1=C(C)NC2=C(C(=O)CC(c3ccc(OC)c(OC)c3)C2)C1c1ccc(SC)cc1 (stereo not drawn)	127	> 100000	302
COc1ccc(C=NNc2nc3cc(Cl)ccc3[nH]2)cc1OC	111	> 89800	239
CCOC(=O)C(=CNc1ccc(I)cn1)C(=O)OCC	< 12.6	> 10000	190
COC(=O)[C@@H]1C[C@@H](NC(=O)c2ccc(OC)cc2OC)CN1Cc1ccc(C)cc1C	126	> 100000	303
COc1ccc(-c2nc(SCCCCC(=O)N3CCN(C(c4ccccc4)c4ccccc4)CC3)[nH]c2-c2ccc(OC)cc2)cc1	< 13.4	> 10000	> 1180
Cc1ccn2c(NC(C)(C)CC(C)(C)C)c(-c3ccccc3OC(=O)CC(C)C)nc2c1	< 11.5	> 10000	772
c1ccc(C2=NN(c3ccccc3)N(c3ccccc3)N2)cc1	129	> 100000	137
Cc1cccc(N(C)c2nc3ccccc3c3nnc(C)n23)c1	134	> 100000	119
COCCNC(=O)[C@@H]1C[C@@H](Sc2nc3ccccc3[nH]2)CN1Cc1ccc2ccccc2c1	135	> 100000	638
COC(=O)C1C(=O)C2=C(CC1C)NC(=O)CC2c1ccc(Cl)cc1Cl (stereo not drawn)	128	> 100000	991
CC1(C)C(=O)C2(CCCCC2)C(=O)OC1/C=C/c1ccccc1 (stereo not drawn)	12.3	> 10000	> 1250
OC1=C2C(=Nc3ccccc3SC2c2ccc(Br)cc2)c2ccccc21 (stereo not drawn)	57.7	> 48000	337
O=C(Nc1cc(C(=O)N2CCC(Cc3ccccc3)CC2)ccc1N1CC2CC(C1)c1cccc(=O)n1C2)c1cccs1 (stereo not drawn)	64.4	49700	74.4
Oc1ccccc1Nc1nc(-c2ccccc2O)nc2ccccc12	136	> 100000	577
O=C(Nc1ccc(C2=NCCN2)cc1)c1ccc(NC(=O)c2ccc(C3=NCCN3)cc2)cc1	13.5	> 10000	81.9
Cc1ccc(C)c(-c2csc(Nc3ccc(C)c(C)c3)n2)c1	116	> 100000	493
N=c1c2c(n(Cc3ccc(Cl)cc3)c3c1CCC3)CCC2	125	> 100000	62.7
CC(C)CN1C(=O)c2ccccc2C(C(=O)Nc2ccc(F)cc2F)C1c1cccs1 (stereo not drawn)	129	> 100000	219
CC1OC(=O)C(C(C)C)NC(=O)C(C(C)C)OC(=O)C(C(C)C)NC(=O)C(C)OC(=O)C(C(C)C)NC(=O)C(C(C)C)OC(=O)C(C(C)C)NC(=O)C(C)OC(=O)C(C(C)C)NC(=O)C(C(C)C)OC(=O)C(C(C)C)NC1=O (stereo not drawn)	11.7	> 10000	91.6
O=C(C=Cc1cccnc1)C12CC3CC(CC(C3)C1)C2	122	> 100000	216
CN(C)c1cc[n+](CC(=O)c2ccc(Cl)cc2)cc1	132	> 100000	168
